# Measured values published in ChEMBL document CHEMBL3885861, “Open TG-GATES”.
# Species on record: Rattus norvegicus
# Assay: Open TG-GATES - Regimen: Daily Repeat
# Type: toxicity, organism-based, Sprague-Dawley
# Parameters: regimen Daily Repeat, gender Male, age 6 weeks
# Conditions: in vivo, po, route gavage; for APTT / Bas / Eos / Fbg / Hb / Ht / Lym / MCH / MCHC / MCV / Mono / Neu / PT / Plat / RBC / Ret / WBC: tissue Blood; for KIDNEY_L / KIDNEY_R / KIDNEY_TOTAL: tissue Kidney; for LIVER: tissue Liver; for ALP / ALT / AST / BUN / CRE / Ca / DBIL / GLC / IP / K / LDH / Na / PL / RALB / TBIL / TC / TP / gamma-GTP / TG: tissue Plasma
# [1] = 50 mg/kg, 72 h, dose level Middle, time 3 day
# [2] = 50 mg/kg, […], dose level Middle, time 7 day
# [3] = 50 mg/kg, […], dose level Middle, time 14 day
# [4] = 50 mg/kg, […], dose level Middle, time 28 day
# [5] = 150 mg/kg, 72 h, dose level High, time 3 day
# [6] = 150 mg/kg, […], dose level High, time 7 day
# [7] = 150 mg/kg, […], dose level High, time 14 day
# [8] = 150 mg/kg, […], dose level High, time 28 day
smiles,measurement,setting,value
Oc1ncnc2[nH]ncc12 [ALLOPURINOL],APTT,[1],16.2 s
same,Bas,[1],0%
same,Eos,[1],1.4%
same,Fbg,[1],261.6 mg/dL
same,Hb,[1],13.5 g/dL
same,Ht,[1],40%
same,Lym,[1],75%
same,MCH,[1],21.9 pg
same,MCHC,[1],33.7%
same,MCV,[1],64.9 fL
same,Mono,[1],9.2%
same,Neu,[1],14.4%
same,PT,[1],12.3 s
same,Plat,[1],108.7 x10_4/uL
same,RBC,[1],618 x10_4/ul
same,Ret,[1],6.3%
same,WBC,[1],139.1 x10_2/uL
same,KIDNEY_L,[1],1.2 g
same,KIDNEY_R,[1],1.2 g
same,KIDNEY_TOTAL,[1],2.3 g
same,LIVER,[1],11.5 g
same,ALP,[1],918 IU/L
same,ALT,[1],33.8 IU/L
same,AST,[1],65.8 IU/L
same,BUN,[1],20.6 mg/dL
same,CRE,[1],0.5 mg/dL
same,Ca,[1],11.1 mg/dL
same,DBIL,[1],0.004 mg/dL
same,GLC,[1],194.4 mg/dL
same,IP,[1],7 mg/dL
same,K,[1],4.7 meq/L
same,LDH,[1],111.4 IU/L
same,Na,[1],138.2 meq/L
same,PL,[1],150 mg/dL
same,RALB,[1],3.9 g/dL
same,TBIL,[1],0.3 mg/dL
same,TC,[1],79.4 mg/dL
same,TP,[1],6.1 g/dL
same,gamma-GTP,[1],2 IU/L
same,TERMINAL_BW,[2],270.7 g
same,TERMINAL_BW,[3],308.6 g
same,TERMINAL_BW,[4],380.1 g
same,APTT,[2],16.4 s
same,Bas,[2],0%
same,Eos,[2],0.4%
same,Fbg,[2],246 mg/dL
same,Hb,[2],14.2 g/dL
same,Ht,[2],42.3%
same,Lym,[2],86.4%
same,MCH,[2],21.4 pg
same,MCHC,[2],33.6%
same,MCV,[2],63.9 fL
same,Mono,[2],3.8%
same,Neu,[2],9.4%
same,PT,[2],11.8 s
same,Plat,[2],120 x10_4/uL
same,RBC,[2],661.2 x10_4/ul
same,Ret,[2],5.3%
same,WBC,[2],129.4 x10_2/uL
same,APTT,[3],16.5 s
same,Bas,[3],0%
same,Eos,[3],0.6%
same,Fbg,[3],232.2 mg/dL
same,Hb,[3],14.9 g/dL
same,Ht,[3],44.6%
same,Lym,[3],84%
same,MCH,[3],20.8 pg
same,MCHC,[3],33.4%
same,MCV,[3],62.2 fL
same,Mono,[3],3.6%
same,Neu,[3],12.2%
same,PT,[3],11.9 s
same,Plat,[3],111.6 x10_4/uL
same,RBC,[3],716 x10_4/ul
same,Ret,[3],4.2%
same,WBC,[3],114 x10_2/uL
same,APTT,[4],16.8 s
same,Bas,[4],0%
same,Eos,[4],1%
same,Fbg,[4],225.6 mg/dL
same,Hb,[4],15.2 g/dL
same,Ht,[4],45%
same,Lym,[4],78.8%
same,MCH,[4],19.8 pg
same,MCHC,[4],33.8%
same,MCV,[4],58.5 fL
same,Mono,[4],4.8%
same,Neu,[4],15.6%
same,PT,[4],12.1 s
same,Plat,[4],101.2 x10_4/uL
same,RBC,[4],770.4 x10_4/ul
same,Ret,[4],2.9%
same,WBC,[4],128.2 x10_2/uL
same,KIDNEY_L,[2],1.2 g
same,KIDNEY_R,[2],1.2 g
same,KIDNEY_TOTAL,[2],2.4 g
same,KIDNEY_L,[3],1.3 g
same,KIDNEY_R,[3],1.3 g
same,KIDNEY_TOTAL,[3],2.5 g
same,KIDNEY_L,[4],1.5 g
same,KIDNEY_R,[4],1.5 g
same,KIDNEY_TOTAL,[4],3.1 g
same,LIVER,[2],13.3 g
same,LIVER,[3],14 g
same,LIVER,[4],15.1 g
same,ALP,[2],917.6 IU/L
same,ALT,[2],33.4 IU/L
same,AST,[2],64 IU/L
same,BUN,[2],20.2 mg/dL
same,CRE,[2],0.5 mg/dL
same,Ca,[2],11.4 mg/dL
same,DBIL,[2],0.034 mg/dL
same,GLC,[2],207.2 mg/dL
same,IP,[2],7.6 mg/dL
same,K,[2],4.3 meq/L
same,LDH,[2],87 IU/L
same,Na,[2],140.2 meq/L
same,PL,[2],158.2 mg/dL
same,RALB,[2],3.9 g/dL
same,TBIL,[2],0.3 mg/dL
same,TC,[2],74.4 mg/dL
same,TG,[2],144.4 mg/dL
same,TP,[2],6.1 g/dL
same,gamma-GTP,[2],1.2 IU/L
same,ALP,[3],645.2 IU/L
same,ALT,[3],29.8 IU/L
same,AST,[3],63 IU/L
same,BUN,[3],20.2 mg/dL
same,CRE,[3],0.6 mg/dL
same,DBIL,[3],0.002 mg/dL
same,GLC,[3],200 mg/dL
same,IP,[3],7.5 mg/dL
same,K,[3],4.5 meq/L
same,LDH,[3],71.2 IU/L
same,Na,[3],139.6 meq/L
same,PL,[3],147.4 mg/dL
same,RALB,[3],3.8 g/dL
same,TBIL,[3],0.3 mg/dL
same,TC,[3],65.8 mg/dL
same,TG,[3],131.2 mg/dL
same,TP,[3],6.2 g/dL
same,gamma-GTP,[3],1.6 IU/L
same,ALP,[4],574.8 IU/L
same,ALT,[4],29.2 IU/L
same,AST,[4],60.6 IU/L
same,BUN,[4],22 mg/dL
same,CRE,[4],0.6 mg/dL
same,DBIL,[4],0.014 mg/dL
same,GLC,[4],187.4 mg/dL
same,IP,[4],6.3 mg/dL
same,K,[4],4.6 meq/L
same,LDH,[4],63.6 IU/L
same,Na,[4],139.4 meq/L
same,PL,[4],145.8 mg/dL
same,RALB,[4],4 g/dL
same,TBIL,[4],0.3 mg/dL
same,TC,[4],66 mg/dL
same,TG,[4],147 mg/dL
same,TP,[4],6.3 g/dL
same,gamma-GTP,[4],1.6 IU/L
same,TERMINAL_BW,[5],225 g
same,APTT,[5],15.8 s
same,Bas,[5],0%
same,Eos,[5],0.8%
same,Fbg,[5],368.2 mg/dL
same,Hb,[5],14 g/dL
same,Ht,[5],41.8%
same,Lym,[5],70.2%
same,MCH,[5],21.7 pg
same,MCHC,[5],33.4%
same,MCV,[5],65.1 fL
same,Mono,[5],13%
same,Neu,[5],16%
same,PT,[5],12.5 s
same,Plat,[5],115.9 x10_4/uL
same,RBC,[5],642.4 x10_4/ul
same,Ret,[5],5.2%
same,WBC,[5],122.6 x10_2/uL
same,KIDNEY_L,[5],1.6 g
same,KIDNEY_R,[5],1.7 g
same,KIDNEY_TOTAL,[5],3.2 g
same,LIVER,[5],9.7 g
same,ALP,[5],838.2 IU/L
same,ALT,[5],27.6 IU/L
same,AST,[5],61.2 IU/L
same,BUN,[5],35.2 mg/dL
same,CRE,[5],0.8 mg/dL
same,Ca,[5],11.5 mg/dL
same,DBIL,[5],0 mg/dL
same,GLC,[5],192 mg/dL
same,IP,[5],8 mg/dL
same,K,[5],4.8 meq/L
same,LDH,[5],165.4 IU/L
same,Na,[5],139 meq/L
same,PL,[5],142 mg/dL
same,RALB,[5],3.8 g/dL
same,TBIL,[5],0.3 mg/dL
same,TC,[5],87 mg/dL
same,TG,[5],47.8 mg/dL
same,TP,[5],6.3 g/dL
same,gamma-GTP,[5],4.2 IU/L
same,TERMINAL_BW,[6],245.1 g
same,TERMINAL_BW,[7],248.1 g
same,TERMINAL_BW,[8],319.9 g
same,APTT,[6],16.2 s
same,Bas,[6],0%
same,Eos,[6],1%
same,Fbg,[6],300.7 mg/dL
same,Hb,[6],14.2 g/dL
same,Ht,[6],42.6%
same,Lym,[6],77.7%
same,MCH,[6],21 pg
same,MCHC,[6],33.2%
same,MCV,[6],63.2 fL
same,Mono,[6],6.7%
same,Neu,[6],15.3%
same,PT,[6],12.9 s
same,Plat,[6],122.5 x10_4/uL
same,RBC,[6],676.7 x10_4/ul
same,Ret,[6],2.8%
same,WBC,[6],161 x10_2/uL
same,APTT,[7],16.1 s
same,Bas,[7],0%
same,Eos,[7],1%
same,Fbg,[7],414 mg/dL
same,Hb,[7],14.4 g/dL
same,Ht,[7],42.8%
same,Lym,[7],52%
same,MCH,[7],19.8 pg
same,MCHC,[7],33.5%
same,MCV,[7],59 fL
same,Mono,[7],7%
same,Neu,[7],40.4%
same,PT,[7],13.3 s
same,RBC,[7],725 x10_4/ul
same,Ret,[7],2.1%
same,WBC,[7],209.4 x10_2/uL
same,APTT,[8],15.3 s
same,Bas,[8],0%
same,Eos,[8],0.5%
same,Fbg,[8],319.5 mg/dL
same,Hb,[8],13.7 g/dL
same,Ht,[8],40.8%
same,Lym,[8],74.8%
same,MCH,[8],19.2 pg
same,MCHC,[8],33.6%
same,MCV,[8],57.1 fL
same,Mono,[8],3.2%
same,Neu,[8],21%
same,PT,[8],13 s
same,Plat,[8],117.9 x10_4/uL
same,RBC,[8],713.5 x10_4/ul
same,Ret,[8],3.9%
same,WBC,[8],344.2 x10_2/uL
same,KIDNEY_L,[6],1.8 g
same,KIDNEY_R,[6],1.9 g
same,KIDNEY_TOTAL,[6],3.7 g
same,KIDNEY_L,[7],2.8 g
same,KIDNEY_R,[7],2.9 g
same,KIDNEY_TOTAL,[7],5.7 g
same,KIDNEY_L,[8],3 g
same,KIDNEY_R,[8],2.7 g
same,KIDNEY_TOTAL,[8],5.6 g
same,LIVER,[8],12.1 g
same,ALP,[6],697 IU/L
same,ALT,[6],24.7 IU/L
same,AST,[6],60.7 IU/L
same,BUN,[6],38.7 mg/dL
same,CRE,[6],0.8 mg/dL
same,Ca,[6],11 mg/dL
same,DBIL,[6],0.0367 mg/dL
same,GLC,[6],190 mg/dL
same,IP,[6],5.6 mg/dL
same,K,[6],4.6 meq/L
same,LDH,[6],96.3 IU/L
same,Na,[6],141.3 meq/L
same,PL,[6],139.7 mg/dL
same,RALB,[6],3.8 g/dL
same,TBIL,[6],0.2 mg/dL
same,TC,[6],80.7 mg/dL
same,TG,[6],64.3 mg/dL
same,TP,[6],6.2 g/dL
same,gamma-GTP,[6],3 IU/L
same,ALP,[7],608.6 IU/L
same,ALT,[7],23.4 IU/L
same,AST,[7],62.8 IU/L
same,BUN,[7],66.2 mg/dL
same,CRE,[7],1 mg/dL
same,DBIL,[7],0 mg/dL
same,GLC,[7],177 mg/dL
same,IP,[7],5.1 mg/dL
same,K,[7],4.5 meq/L
same,LDH,[7],150.8 IU/L
same,Na,[7],140.2 meq/L
same,PL,[7],154.8 mg/dL
same,RALB,[7],3.3 g/dL
same,TBIL,[7],0.3 mg/dL
same,TC,[7],91.2 mg/dL
same,TP,[7],6.1 g/dL
same,gamma-GTP,[7],6 IU/L
same,ALP,[8],482 IU/L
same,ALT,[8],29.8 IU/L
same,AST,[8],68.8 IU/L
same,BUN,[8],61.2 mg/dL
same,CRE,[8],1.1 mg/dL
same,Ca,[8],11.3 mg/dL
same,DBIL,[8],0.015 mg/dL
same,GLC,[8],163.5 mg/dL
same,IP,[8],5.2 mg/dL
same,K,[8],4.8 meq/L
same,LDH,[8],150.8 IU/L
same,Na,[8],141.5 meq/L
same,PL,[8],162.5 mg/dL
same,RALB,[8],3.7 g/dL
same,TBIL,[8],0.2 mg/dL
same,TC,[8],98.2 mg/dL
same,TG,[8],79 mg/dL
same,TP,[8],6.3 g/dL
same,gamma-GTP,[8],3.8 IU/L
